Literature values, collected in patent publication US11077150B2, “Methods and compositions for treatment of eye conditions” (priority 2018, dated 2021).

Key:
[1] = biological target: CB2 receptors (Homo sapiens, UniProt P34972)
[2] = rat model of DR
[3] = 75 symptomatic patients; nine-month trial; eye drops
[4] = topically applied in light mineral oil; volunteers
[5] = oral doses of up to 600 mg; elderly subjects

CB2 receptors, sequence (P34972 whole entry): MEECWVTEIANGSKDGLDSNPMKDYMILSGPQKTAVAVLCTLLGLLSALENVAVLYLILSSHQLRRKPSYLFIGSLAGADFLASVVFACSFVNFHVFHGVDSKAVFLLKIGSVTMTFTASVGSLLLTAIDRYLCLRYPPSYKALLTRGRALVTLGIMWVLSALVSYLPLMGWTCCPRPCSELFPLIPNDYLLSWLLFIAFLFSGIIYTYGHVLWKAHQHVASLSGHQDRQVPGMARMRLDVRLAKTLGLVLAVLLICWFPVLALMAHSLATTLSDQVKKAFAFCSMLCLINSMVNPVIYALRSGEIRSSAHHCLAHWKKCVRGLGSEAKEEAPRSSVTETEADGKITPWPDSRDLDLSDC

For `C=C(C)[C@@H]1CCC(C)=C[C@H]1c1c(O)cc(CCCCC)cc1O` [Cannabidiol, cannabidiol], the water solubility is given as “very low”, the “affinity for CB2 receptors” value [1] is given as “low affinity” and the “oxidative stress and neurotoxicity” value [2] is given as “significantly reduced”. For the same molecule, the retinal cell death [2] was “prevented”.
In the case of `CC(=O)NCCC(=O)N[C@@H](Cc1cnc[nH]1)C(=O)O` [N-acetyl carnosine], the glare sensitivity [3] is given as “significant improvement” and the visual acuity [3] is given as “improvement”.
For `CCCCCc1cc(O)c2c(c1)OC(C)(C)[C@@H]1CCC(C)=C[C@@H]21` [THC, Δ^9-tetrahydrocannabinol], the adverse effects [4] is given as “burning sensation, lid swelling” and the “effect on interocular pressure” value [4] is given as “did not improve”.
For `O=C(O)CCCCC1CCSS1` (stereo not drawn) [lipoic acid, α-lipoic acid], the tolerability [5] is given as “well tolerated”.
